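Assay format: 96-well plates, 48-hour exposure. GI50 = concentration required for 50% inhibition of growth.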 Calls of active or inactive are those of the source. No stated cut-off is given here; in the data, active = GI50 up to about 1.1 µM and inactive = higher.
What was measured:
Experiment in all cases: DTP human tumour cell line panel, 48 h
EKVX = system: EKVX
MDA-MB-435 = system: MDA-MB-435
HL-60 = system: HL-60
MOLT-4 = system: MOLT-4
SF-539 = system: SF-539
UACC-62 = system: UACC-62
KM12 = system: KM12
U-251 = system: U-251
SK-MEL-28 = system: SK-MEL-28
SR = system: SR
HCT-15 = system: HCT-15
SNB-75 = system: SNB-75
SK-OV-3 = system: SK-OV-3
786-0 = system: 786-0
HCC 2998 = system: HCC 2998
UO-31 = system: UO-31
Hs-578T = system: Hs-578T
SK-MEL-5 = system: SK-MEL-5
MDA-MB-231 = system: MDA-MB-231
LOX IMVI = system: LOX IMVI

Structure (SMILES) | GI50 (EKVX) | GI50 (MDA-MB-435) | GI50 (HL-60) | GI50 (MOLT-4) | GI50 (SF-539) | GI50 (UACC-62) | GI50 (KM12) | GI50 (U-251) | GI50 (SK-MEL-28) | GI50 (SR) | GI50 (HCT-15) | GI50 (SNB-75) | GI50 (SK-OV-3) | GI50 (786-0) | GI50 (HCC 2998) | GI50 (UO-31) | GI50 (Hs-578T) | GI50 (SK-MEL-5) | GI50 (MDA-MB-231) | GI50 (LOX IMVI)
CN(C)c1ccc(/C=C2\Oc3cc(O)ccc3C2=O)cc1 | > 100 µM (inactive) | 36.9 µM (inactive) | 40.5 µM (inactive) | 60.8 µM (inactive) | > 100 µM (inactive) | > 100 µM (inactive) | 61.2 µM (inactive) | 57 µM (inactive) | > 100 µM (inactive) | 52 µM (inactive) | 44.9 µM | 79.6 µM (inactive) | > 100 µM (inactive) | > 100 µM (inactive) | > 100 µM (inactive) | > 100 µM (inactive) | > 100 µM (inactive) | 80.7 µM (inactive) | 53.1 µM (inactive) | 
COC(=O)n1c(=O)n(-c2ccccc2)c(=O)n1C(=O)Nc1ccccc1 | > 100 µM (inactive) | > 100 µM (inactive) | > 100 µM (inactive) | > 100 µM (inactive) |  | > 100 µM (inactive) | > 100 µM (inactive) | > 100 µM (inactive) | > 100 µM (inactive) | > 100 µM (inactive) | > 100 µM | > 100 µM (inactive) | > 100 µM (inactive) | > 100 µM (inactive) | > 100 µM (inactive) | > 100 µM (inactive) | > 100 µM (inactive) | > 100 µM (inactive) | > 100 µM (inactive) | > 100 µM (inactive)
O=C1CCCC2C3CC(CN12)C1CCCCN1C3.[O-][Cl+3]([O-])([O-])O (stereo unspecified) | > 100 µM (inactive) | > 100 µM (inactive) | > 100 µM (inactive) | > 100 µM (inactive) | > 100 µM (inactive) | > 100 µM (inactive) | > 100 µM (inactive) | > 100 µM (inactive) | > 100 µM (inactive) | > 100 µM (inactive) | > 100 µM |  | > 100 µM (inactive) | > 100 µM (inactive) | > 100 µM (inactive) | > 100 µM (inactive) | > 100 µM (inactive) | > 100 µM (inactive) | > 100 µM (inactive) | > 100 µM (inactive)
CCOC(=O)C1CCCC1S(=O)(=O)c1ccc(C)cc1 (stereo unspecified) | > 100 µM (inactive) | 79.4 µM (inactive) | > 100 µM (inactive) | > 100 µM (inactive) |  | > 100 µM (inactive) | > 100 µM (inactive) | > 100 µM (inactive) | > 100 µM (inactive) | > 100 µM (inactive) | > 100 µM | 84.1 µM (inactive) | > 100 µM (inactive) | > 100 µM (inactive) | > 100 µM (inactive) | > 100 µM (inactive) | > 100 µM (inactive) | > 100 µM (inactive) | > 100 µM (inactive) | > 100 µM (inactive)
C[N+](C)(C)CCN(Cc1cccs1)c1ccccn1 |  | > 100 µM (inactive) | > 100 µM (inactive) |  | > 100 µM (inactive) | > 100 µM (inactive) | > 100 µM (inactive) | > 100 µM (inactive) | > 100 µM (inactive) | > 100 µM (inactive) | > 100 µM | 59.8 µM (inactive) | > 100 µM (inactive) | > 100 µM (inactive) | > 100 µM (inactive) | > 100 µM (inactive) | 74.5 µM (inactive) | > 100 µM (inactive) | > 100 µM (inactive) | > 100 µM (inactive)
Oc1cn(-c2ccc(Cl)cc2)nc1-c1n[nH]c(=S)n1-c1ccccc1 | 27.2 µM (inactive) | 1.95 µM (inactive) | 4.13 µM (inactive) | 62.7 µM (inactive) | 5.92 µM (inactive) | 11.4 µM (inactive) | 4.36 µM (inactive) | 10.8 µM (inactive) | 16.8 µM (inactive) | 2.97 µM (inactive) | 3.36 µM | 21.1 µM (inactive) | 17.2 µM (inactive) | 11.6 µM (inactive) |  | 14.2 µM (inactive) | 7.64 µM (inactive) | 4.19 µM (inactive) | 57.5 µM (inactive) | 
COc1ccc(NC(=O)CSc2nnc(-c3ccc(/N=C\c4ccc(Cl)cc4)cc3)o2)cc1 | > 59.2 µM (inactive) | 34 µM (inactive) | 4.85 µM (inactive) | 13.9 µM (inactive) |  | 28.8 µM (inactive) | 29.9 µM (inactive) | 24.8 µM (inactive) | > 45.1 µM (inactive) | 13.3 µM (inactive) | 4.78 µM | 31.6 µM (inactive) | 51.8 µM (inactive) | 37.8 µM (inactive) | 52.8 µM (inactive) | > 54.7 µM (inactive) | 77.6 µM (inactive) | 27.3 µM (inactive) | 34.5 µM (inactive) | 7.98 µM (inactive)
[O-][S@@+]1c2ccc3ccccc3c2N[C@@H]2[C@H]1[C@H]1C=C[C@@H]2C1 | > 100 µM (inactive) | 24.9 µM (inactive) | 24 µM (inactive) | 26.6 µM (inactive) | > 100 µM (inactive) | 84.1 µM (inactive) | 31.1 µM (inactive) | 76.4 µM (inactive) | 98.6 µM (inactive) | 30 µM (inactive) | 33.1 µM | 16.9 µM (inactive) | 42.1 µM (inactive) | 64.3 µM (inactive) |  | 64.4 µM (inactive) | 30.1 µM (inactive) | 28 µM (inactive) | 32.3 µM (inactive) | 31.6 µM (inactive)
COc1cccc(C2c3cc4c(cc3OC(O)C2C)OCO4)c1OC (stereo unspecified) | 20.1 µM (inactive) | 5.97 µM (inactive) | 1.87 µM (inactive) | 2.16 µM (inactive) | 11.1 µM (inactive) | 13.9 µM (inactive) | 5.04 µM (inactive) | 3.27 µM (inactive) | 13.3 µM (inactive) | 2.48 µM (inactive) | 2.1 µM | 2.36 µM (inactive) |  | 3.29 µM (inactive) | 14.9 µM (inactive) |  | 4.46 µM (inactive) | 7.14 µM (inactive) | 14.2 µM (inactive) | 4.05 µM (inactive)
CCC/N=C1\S/C(=C/c2ccc(OC)c(OC)c2)C(=O)N1c1ccccc1 | 15.8 µM (inactive) | > 100 µM (inactive) | 59.8 µM (inactive) | 33.9 µM (inactive) | 7.91 µM (inactive) | 37 µM (inactive) | > 100 µM (inactive) | 12.6 µM (inactive) | > 100 µM (inactive) | 51.8 µM (inactive) | > 100 µM |  | 11.2 µM (inactive) | 13.1 µM (inactive) | > 100 µM (inactive) | 32.5 µM (inactive) | 9.1 µM (inactive) | 37.6 µM (inactive) | 20.6 µM (inactive) | > 100 µM (inactive)
O=c1[nH]nc(-c2ccccc2)n1/N=C\c1ccccc1 | > 100 µM (inactive) | > 100 µM (inactive) | > 100 µM (inactive) | > 100 µM (inactive) | > 100 µM (inactive) | > 100 µM (inactive) | > 100 µM (inactive) | > 100 µM (inactive) | > 100 µM (inactive) | > 100 µM (inactive) | > 100 µM | > 100 µM (inactive) |  | > 100 µM (inactive) | > 100 µM (inactive) | > 100 µM (inactive) | > 100 µM (inactive) | > 100 µM (inactive) | > 100 µM (inactive) | > 100 µM (inactive)
COc1cccc2c1C(=O)c1c(O)c3c(c(O)c1C2=O)CC(O)(C(C)=O)CC3OC1OC(COC(C)=O)C(OC(C)=O)C(OC(C)=O)C1OC(C)=O (stereo unspecified) | 0.116 µM (active) | 88.7 µM (inactive) | 53.8 µM (inactive) | 12.8 µM (inactive) | 16.8 µM (inactive) | 33.2 µM (inactive) | 52.7 µM (inactive) | 12.9 µM (inactive) | 85.5 µM (inactive) | 5.38 µM (inactive) | 47.2 µM | 9.29 µM (inactive) | 32.7 µM (inactive) | 12.1 µM (inactive) |  | > 100 µM (inactive) | 14.5 µM (inactive) | 23.9 µM (inactive) | 17.7 µM (inactive) | 29.9 µM (inactive)
CC(NNC(=O)c1cc[n+]([BH2-]C#N)cc1)c1ccccc1F (stereo unspecified) | > 100 µM (inactive) | > 100 µM (inactive) | > 100 µM (inactive) | > 100 µM (inactive) | > 100 µM (inactive) | > 100 µM (inactive) | > 100 µM (inactive) | > 100 µM (inactive) | > 100 µM (inactive) | > 100 µM (inactive) | > 100 µM | > 100 µM (inactive) |  | > 100 µM (inactive) | > 100 µM (inactive) | > 100 µM (inactive) | > 100 µM (inactive) | > 100 µM (inactive) | > 100 µM (inactive) | > 100 µM (inactive)
C[n+]1c(-c2ccc(/C=N/Nc3n[nH]c(=S)n3N/N=C/c3ccc(-c4cn5ccccc5[n+]4C)cc3)cc2)cn2ccccc21 | > 100 µM (inactive) | > 100 µM (inactive) | > 100 µM (inactive) | > 100 µM (inactive) | > 100 µM (inactive) |  | > 100 µM (inactive) | > 100 µM (inactive) | > 100 µM (inactive) | > 100 µM (inactive) | > 100 µM | > 100 µM (inactive) | > 100 µM (inactive) | > 100 µM (inactive) | > 100 µM (inactive) | > 100 µM (inactive) | > 100 µM (inactive) | > 100 µM (inactive) | > 100 µM (inactive) | 
Nc1ccc2c(c1)CN1C(=O)c3ccccc3C1=N2 [DANIQUIDONE] | 51.3 µM (inactive) | 29.2 µM (inactive) | 8.3 µM (inactive) | 3.77 µM (inactive) | 10.3 µM (inactive) | 32.6 µM (inactive) | 50.7 µM (inactive) | 27.7 µM (inactive) | > 119 µM (inactive) | 18.7 µM (inactive) | 34.8 µM | 30.2 µM (inactive) |  | 28.4 µM (inactive) | 63 µM (inactive) | 27.3 µM (inactive) | 21.3 µM (inactive) | 16.8 µM (inactive) | 31.6 µM (inactive) | 35.7 µM (inactive)

From ChEMBL document CHEMBL1201862, “PubChem BioAssay data set” (2004)
